In brackets after ≈: the same amount, converted by molar mass.
Columns and labels:
[1] = system: NO release in LPS-stimulated RAW 264.7 macrophage cells; experiment: Inhibition of nitric oxide production (Griess nitrite assay) in LPS-activated RAW 264.7 macrophages; assay type: cell-based, murine; details: LPS-stimulated RAW 264.7, 48 h; for NO inhibition: ¾ IC50 concentration; for IC50: Mus musculus, RAW264.7
Method: To evaluate the anti-inflammatory activity of the rearranged abietanes (5, 7, 17, and 19) along with their precursor 13, we conducted experiments on RAW 264.7 macrophage cells, a well-known model for screening anti-inflammatory compounds. The macrophages were stimulated with LPS to induce the maximum release of nitric oxide (NO) during the inflammatory response. Subsequently, the different compounds were incubated with the cells at sub-cytotoxic concentrations for 48 h (Figure 9). Next, we determined the concentration of nitrites in the culture medium, which was proportional to the amount of NO release.
Nitrite production was analyzed using the Griess reaction method. The concentration of nitrite was used as an indication of nitric oxide (NO) production. RAW 264.7 cells were seeded at 6 × 10^4 cells/well in 24-well cell culture plates, supplemented with 10 μg/mL of lipopolysaccharide (LPS). […] The Griess reaction was conducted by mixing 150 μL of supernatant test samples or sodium nitrite standard (0–120 μM) with 25 μL of Griess reagent A (0.1% n-(1-naphthyl) ethylenediamine dihydrochloride) and 25 μL of Griess reagent B (1% sulfanilamide in 5% of phosphoric acid) in a 96-well plate. The mixture was incubated at room temperature for 15 min, after which the absorbance was measured at 540 nm using an ELISA plate reader (Tecan Sunrise MR20–301, TECAN, Grödig, Austria). To determine the concentration of nitrite in each sample supernatant, the absorbance was referenced to the nitrite standard curve. To determine the percentage of NO production, the increase between the negative control (untreated cells) and the positive control (cells only with 10 μg/mL of LPS) was assigned 100%.

HT29 cells = experiment: Mitochondrial membrane potential by flow cytometry (Rh123/DHR); assay type: cell-based, human; details: HT29, 72 h
Source text: Apoptotic effects induced by anticancer agents can be mediated through two major pathways: intrinsic and extrinsic apoptotic pathways. The intrinsic pathway involves the disruption of the mitochondrial membrane and changes in the mitochondrial membrane potential (MMP), while the extrinsic pathway leads to apoptosis without initial MMP alterations. […] Further investigations are necessary to elucidate the detailed molecular mechanisms underlying their apoptotic effect.
We analyzed the electrochemical gradient across the mitochondrial membrane via analytical flow cytometry, using dihydrorhodamine (DHR). A total of 5 × 10^4 HT29 cells were plated in 24-well plates for this assay. […] Next, the medium was replaced by adding fresh solution with DHR to a final concentration of 5 μg/mL. The cells were incubated at 37 °C for 1 h, washed, and resuspended in PBS with 5 μg/mL of PI. The fluorescence intensity was measured using a FACScan flow cytometer (fluorescence-activated cell sorter). The experiments were performed two times, each with three replications per assay.

[2] = RAW 264.7 cell viability (MTT); assay type: cell-based, murine; details: mouse, RAW 264.7 monocyte/macrophage cells; RAW 264.7, MTT, 0–100 μg/mL; read-out: IC50 (cytotoxicity)
Method: To evaluate the cytotoxic effects of the synthesized abietanes (5, 7, 13, 17, and 19) on RAW 264.7 monocyte/macrophage murine cells and to establish sub-cytotoxic concentrations for anti-inflammatory testing, we conducted cell viability assays using the MTT method. Each compound was tested at increasing concentration levels (0–100 μg/mL), and the IC50 values were determined by interpolation in the sigmoidal cytotoxicity curves (Figure 8). […] Additionally, sub-cytotoxic concentrations corresponding to ¾ IC50, ½ IC50, and ¼ IC50 were determined and selected for subsequent anti-inflammatory assays, ensuring that the observed effects were specifically attributed to the anti-inflammatory properties of the compounds rather than cytotoxicity. The human colorectal adenocarcinoma cell line HT29 (ECACC no. 9172201; ATCC no. HTB-38), the human hepatocarcinoma cell line HepG2 (ECACC no. 85011430), the mouse melanoma cells B16–F10 (ATCC no. CRL-6475), and the murine monocyte/macrophage like RAW 264.7 cell line (ATCC no, TIB-71) were obtained from the cell bank of the University of Granada, Spain. The tumor cell lines were cultured in DMEM (Dulbecco’s modified Eagle’s medium) supplemented with 2 mM glutamine, 10% heat-inactivated FCS (fetal calf serum), and 50 μg/mL of gentamicin (for all cancer cell lines). The RAW 264.7 cell line was cultured in RPMI1640 medium, supplemented with 2 mM glutamine, 10% heat-inactivated FCS, and 50 μg/mL of gentamicin. All cell lines were incubated at 37 °C, in an atmosphere of 5% CO2 and 95% humidity. The culture media were changed every 48 h, and the confluent cultures were separated with a trypsin solution (0.25% EDTA). In all experiments, monolayer cells were grown to 80–90% confluence in sterile cell culture flasks. The effects of the compounds on the cell viability were established using the MTT method (Sigma, St. Louis, MO, USA). The cytotoxicity of the compounds was assessed by measuring the absorbance of MTT dye staining of metabolically competent cells. The cells were cultivated in 96-well plates at 6.0 × 10^3 cells/mL for the HT29 and RAW 264.7 cell lines, at 5.0 × 10^3 cells/mL for B16–F10 cells, and 15.0 × 10^3 cells/mL for the HepG2 cell line, with a final volume of 200 μL per well being incubated with the different products (0–100 μg/mL). After 72 h, 100 μL of MTT solution (0.5 mg/mL) in 50% of PBS and 50% of the medium was added to each well. Following incubation for 1.5 h, formazan was resuspended in 100 μL of DMSO, and each concentration was tested in triplicate. The cell viability relative to the untreated control cells was determined by measuring the absorbance at 570 nm using an ELISA plate reader (Tecan Sunrise MR20–301, TECAN, Grödig, Austria).

SMILES | NO inhibition [1] | IC50 [1] | decrease in positive Rh123-stained cells with regard to untreated control (HT29 cells; IC50 concentration) | decrease in positive Rh123-stained cells with regard to untreated control (HT29 cells; IC80 concentration) | IC50 at 72 h [2]
CC(C)C1=CC2=C(C(=O)C1=O)[C@@]1(C)CCCC(C)(C)[C@@H]1CC2 [Compound 13] | 99.6% | 2.03 ± 0.09 µg/mL (≈ 6.76 µM) | around 40% | 57% | 8.18 ± 1.86 µg/mL (≈ 27.2 µM)
CC(C)C1=CC2=C(C(=O)C1=O)C1=CC(=O)CC(C)(C)[C@@]1(C)C=C2 [Compound 5, Pygmaeocin B] | 100% | 0.033 ± 0.0008 µg/mL (≈ 0.106 µM) | 54% | 61% | 0.14 ± 0.09 µg/mL (≈ 0.451 µM)

Source: article PMC10487843, “Evaluation of Anticancer and Anti-Inflammatory Activities of Some Synthetic Rearranged Abietanes” (International Journal of Molecular Sciences, 2023)
